Assay results taken from patent US6855518B2, “Anti-listeria bacteriocin” (Rhodia Chimie, priority 2000, dated 2005).
Entries after “also recorded” stand apart in the source; their conditions may differ. Ends that are not written are not given here.

Legend:
[1] = system: L. inocua 8811; assay: Well test of bacteriocin activity (inhibition zones on agar); assay type: cell-based; settings: 50 microliters of sakacin G solution, BHI agar, overnight at 37° C.
Protocol: (§1) • Bacterial strains and culture media. Lactobacillus sakei 2512 is cultured at 30° C. in MRS medium (DIFCO Laboratories) sterilised for 12 minutes at 110° C. The indicator strains are cultured in BHI medium (brain-heart infusion; DIFCO Laboratories) at 37° C. • Test of activity. BHI medium, supplemented with 10 g/l agar, is inoculated at 1% with a preculture of the indicator strain in stationary phase before being poured into a Petri dish. 50 microliters of sakacin G solution are placed in wells formed in cooled agar with a hole punch. The bacteriocin activity manifests itself in the appearance of inhibition zones around the wells after incubation overnight at 37° C. • Protein analysis. Sakacin G is analysed by mass spectrometry using a Perkin-Elmer Sciex API 165 device equipped with an Ionspray ionisation source. After lyophilisation, the active HPLC fraction is taken up in an acetonitrile/water solution (1:1) containing 0.1% formic acid, and then injected by infusion at a rate of 5 μl/minute.
(§2) The sakacin G sensitivity of 17 bacterial strains was tested by the well test method (see Materials and Methods).

[2] = system: Lb. Delbrueckii DSM 20081; assay: as above; assay type: cell-based
Protocol: as §1, §2

[3] = system: Lc. lactis ATCC11454; assay: as above; assay type: cell-based; settings: 50 microliters of sakacin G solution, BHI agar, overnight at 37° C.
Protocol: as §1, §2

[4] = system: Ln. Mesenteroides DSM 20240; assay: as above; assay type: cell-based; settings: 50 microliters of sakacin G solution, BHI agar, overnight at 37° C.
Protocol: as §1, §2

[5] = system: Ln. Mesenteroides DSM 20484; assay: as above; assay type: cell-based; settings: 50 microliters of sakacin G solution, BHI agar, overnight at 37° C.
Protocol: as §1, §2

[6] = system: Ln. Paramesenteroides DSM 20288; assay: as above; assay type: cell-based; settings: 50 microliters of sakacin G solution, BHI agar, overnight at 37° C.
Protocol: as §1, §2

[7] = system: P. acidilactici ENSAIA 583; assay: as above; assay type: cell-based; settings: 50 microliters of sakacin G solution, BHI agar, overnight at 37° C.
Protocol: as §1, §2

[8] = system: Lb. Plantarum DSM 20174; assay: as above; assay type: cell-based, Lactobacillus plantarum
Protocol: as §1, §2

[9] = system: Lb brevis DSM 20054; assay: as above; assay type: cell-based, Lactobacillus brevis
Protocol: as §1, §2

[10] = system: Lb. casei DSM 20011; assay: as above; assay type: cell-based, Lactobacillus casei
Protocol: as §1, §2

[11] = system: Lb. sakei 2515; assay: as above; assay type: cell-based, Lactobacillus sakei
Protocol: as §1, §2

[12] = system: P. cerevisiae IP 5492; assay: as above; assay type: cell-based, Pediococcus cerevisiae
Protocol: as §1, §2

[13] = system: E. faecium ENSAIA 631; assay: as above; assay type: cell-based, Enterococcus faecium
Protocol: as §1, §2

[14] = system: E. faecalis ENSAIA 636; assay: as above; assay type: cell-based, Enterococcus faecalis; settings: 50 microliters of sakacin G solution, BHI agar, overnight at 37° C.
Protocol: as §1, §2

[15] = system: E. faecalis IP 5430; assay: as above; assay type: cell-based, Enterococcus faecalis; settings: 50 microliters of sakacin G solution, BHI agar, overnight at 37° C.
Protocol: as §1, §2

[16] = system: E. durans ENSAIA 630; assay: as above; assay type: cell-based, Enterococcus durans
Protocol: as §1, §2

[17] = system: L. ivanovi BUG 496; assay: as above; assay type: cell-based, Listeria ivanovii
Protocol: as §1, §2

[18] = system: Listeria strains; assay: Inhibition spectrum, for Listeria; assay type: cell-based; settings: all the Listeria strains tested
Protocol: as §1, §2

[19] = system: Enterococcus faecalis; assay: Inhibition spectrum, Enterococcus faecalis; assay type: cell-based
Protocol: as §1, §2

Substance: sakacin G: class IIa anti-Listeria bacteriocin polypeptide from Lactobacillus sakei 2512, about 3834 Da, two disulfide bridges; mature sequence SEQ ID NO: 12 (KYYGNGVSCNSHGCSVNWGQAWTCGVNHLANGGHGVC; disulfide (positions not given here))
- Radius of the inhibition halos [1]: 3 mm
- Bacteriocin activity (in words) ([2]; Lactobacillus debrueckii): inactive
- Radius of the inhibition halos ([2]; well test, 50 microliters of sakacin G solution, BHI agar, overnight at 37° C., Lb. Delbrueckii DSM 20081): 0 mm
- Radius of the inhibition halos [3]: 0 mm
- Radius of the inhibition halos [4]: 0 mm
- Radius of the inhibition halos [5]: 0 mm
- Radius of the inhibition halos [6]: 0 mm
- Radius of the inhibition halos [7]: 0 mm
- Bacteriocin activity (in words) ([8]; Lactobacillus plantarum): inactive
- Radius of the inhibition halos ([8]; well test, 50 microliters of sakacin G solution, BHI agar, overnight at 37° C., Lb. Plantarum DSM 20174): 0 mm
- Bacteriocin activity (in words) ([9]; Lactobacillus brevis): inactive
- Radius of the inhibition halos ([9]; well test, 50 microliters of sakacin G solution, BHI agar, overnight at 37° C., Lb brevis DSM 20054): 0 mm
- Bacteriocin activity (in words) ([10]; Lactobacillus casei): inactive
- Radius of the inhibition halos ([10]; well test, 50 microliters of sakacin G solution, BHI agar, overnight at 37° C., Lb. casei DSM 20011): 0 mm
- Bacteriocin activity (in words) ([11]; strains of Lactobacillus sakei other than Lactobacillus sakei 2512): especially effective
- Radius of the inhibition halos ([11]; well test, 50 microliters of sakacin G solution, BHI agar, overnight at 37° C., Lb. sakei 2515): 1 mm
- Bacteriocin activity (in words) ([12]; Pediococcus cerevisiae): especially effective
- Radius of the inhibition halos ([12]; well test, 50 microliters of sakacin G solution, BHI agar, overnight at 37° C., P. cerevisiae IP 5492): 1 mm
- Bacteriocin activity (in words) ([13]; Enterococcus faecium): inactive; also recorded: not against Enterococcus faecium
- Radius of the inhibition halos ([13]; well test, 50 microliters of sakacin G solution, BHI agar, overnight at 37° C., E. faecium ENSAIA 631): 0 mm
- Radius of the inhibition halos [14]: 1 mm
- Radius of the inhibition halos [15]: 2 mm
- Bacteriocin activity (in words) ([16]; Enterococcus durans): especially effective; also recorded: active
- Radius of the inhibition halos ([16]; well test, 50 microliters of sakacin G solution, BHI agar, overnight at 37° C., E. durans ENSAIA 630): 2 mm
- Activity of the purified HPLC fraction (in words) ([17]; HPLC fraction, peak at 23 minutes, Listeria ivanovii BUG 496): active
- Radius of the inhibition halos ([17]; well test, 50 microliters of sakacin G solution, BHI agar, overnight at 37° C., L. ivanovi BUG 496): 6 mm
- Bacteriocin activity (in words) [18]: especially effective; also recorded: active
- Bacteriocin activity (in words) [19]: especially effective; also recorded: active
